Experimental data as given in patent US20230277491A1, “PHARMACEUTICAL COMBINATION COMPRISING GLYCOLIC ACID AND L-ALANINE” (priority 2020, published 2023).

Tests used:
[1] = human, in vivo
Method: Preliminary pharmacokinetic analyses were undertaken in order to determine whether the GA and DL administered to the patients orally were absorbed into the blood stream and into the CSF. […] As can also be observed, DL levels reach 140 mg/L in the blood 1-hour post-administration and are reduced to approx. 20 mg/I after 2- or 3-hours post-administration.
As can be observed in FIG. 9, GA levels are approximately 20 mg/I in the CSF 1-hour post-administration. As can also be observed, DL levels are approximately 5 mg/I in the CSF 1-hour post-administration. 100 mg/kg GA and 100 mg/kg DL was administered in patients to obtain the pharmacokinetic data.

[2] = test system: dopaminergic neurons; assay: Morphology of dopaminergic TH+ neurons in primary mesencephalic culture; format: cell-based, mouse; details: 5 mM GA, FIG. 14
Method: Effect of GA treatment on the morphology of dopaminergic neurons. Fluorescent microscopy images on the left show to TH+ neurons in a primary mesencephalic cell culture with (GA) and without (Control) treatment. […] FIG. 16:
Primary mesencephalic neuronal cell cultures were prepared as previously described. Briefly, E14.5 embryos were obtained from C57JBL6 pregnant mice after cervical dislocation. Brain mesencephali were dissected under the microscope and digested with Trypsin-EDTA 0.12% (Life Technologies, USA) for 7 min. The trypsin reaction was then stopped by adding basic medium (BM), containing Neurobasal A medium (Gibco, USA), 1 mg/mL Pen/Strep, 10% FCS, and […] L-Glutamine, and cells were mechanically dissociated using a fire-polished Pasteur pipette. Medium was fully replaced after 5 min, centrifugation at 1200 rpm, aspiring the supernatant and adding 8 mL of fresh BM to the pellet. Concentration of cells in the medium was estimated using a Neubauer chamber and a 100 μL of medium containing 10^6 cells/mL plated per well in a 96-well plate (Greiner Sensoplate, Germany, EU). […]
[…] The effect of GA and DL on dopaminergic neurons was assessed through semi-automatic quantification of neurite length and width of TH+ neurons after treatment. […] Dopaminergic TH^+ neurons were observed using an inverted fluorescence microscope (Olympus) under a 20× objective.

O=C(O)CO [GA, 2-hydroxyethanoic acid]
GA dose at which the concentration of GA in the blood is too low [1]: lower than 50 mg/kg | concentration in the CSF [1]: ca. 0.33 mM | concentration in the blood [1]: 2000 µM | concentration in the cerebrospinal fluid relative to blood (lower) [1]: about 1:6 | morphology of dopaminergic neurons (neurite and axon length, secondary ramifications) [2]: increases the length of the neurites and the main axon and the number of secondary ramifications
